Source: ChEMBL document CHEMBL1909046, “DrugMatrix in vitro pharmacology data”

How the values were obtained:
[1] = target: Beta-2 adrenergic receptor (Homo sapiens, UniProt P07550); experiment: DRUGMATRIX: Adrenergic beta2 radioligand binding (ligand: [3H] CGP-12177); assay type: cell membranes, Membrane; conditions: cho; Not Active = under 50% inhibition at 10 µM
[2] = target: 5-hydroxytryptamine receptor 4 (Cavia porcellus, UniProt O70528); assay type: cell membranes, Dunkin-Hartley, Striatum, Membrane; further: in other assays of this panel Not Active means under 50% inhibition at 10 µM
Neutrophil elastase = target: T1, Neutrophil elastase (Homo sapiens, UniProt P08246); assay type: tissue-based;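 further: inhibition of neutrophil elastase enzyme activity, measured with a p-nitroanilide-linked peptide substrate; in other assays of this panel Not Active means under 50% inhibition at 10 µM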
T1 sequence (P08246 whole entry): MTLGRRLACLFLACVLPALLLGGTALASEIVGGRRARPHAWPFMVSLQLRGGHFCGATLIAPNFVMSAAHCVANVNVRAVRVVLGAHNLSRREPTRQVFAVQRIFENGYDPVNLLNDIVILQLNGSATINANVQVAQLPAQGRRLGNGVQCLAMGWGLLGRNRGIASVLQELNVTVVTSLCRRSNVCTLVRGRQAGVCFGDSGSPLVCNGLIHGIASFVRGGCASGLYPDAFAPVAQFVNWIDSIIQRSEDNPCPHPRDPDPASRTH

[3] = DRUGMATRIX: Nicotinic Acetylcholine radioligand binding (ligand: [125I] Epibatidine); assay type: cell membranes, Membrane; conditions: imr-32; Not Active = under 50% inhibition at 10 µM
Glycine receptor = Glycine receptor (Rattus norvegicus, UniProt P22771+P24524+P07727+P20781); assay type: cell membranes, Wistar, Spinal cord, Membrane; further: in other assays of this panel Not Active means under 50% inhibition at 10 µM
[4] = DRUGMATRIX: Interleukin IL-1 radioligand binding (ligand: [125I] interleukin 1beta); assay type: cell membranes, Membrane; conditions: nih3t3; Not Active = under 50% inhibition at 10 µM
Cathepsin G = target: T2, Cathepsin G (Homo sapiens, UniProt P08311); assay type: tissue-based; conditions: neutrophil;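 further: inhibition of Cathepsin G enzyme activity, tested on an AMC-conjugated peptide substrate; in other assays of this panel Not Active means under 50% inhibition at 10 µM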
T2 sequence (P08311 whole entry): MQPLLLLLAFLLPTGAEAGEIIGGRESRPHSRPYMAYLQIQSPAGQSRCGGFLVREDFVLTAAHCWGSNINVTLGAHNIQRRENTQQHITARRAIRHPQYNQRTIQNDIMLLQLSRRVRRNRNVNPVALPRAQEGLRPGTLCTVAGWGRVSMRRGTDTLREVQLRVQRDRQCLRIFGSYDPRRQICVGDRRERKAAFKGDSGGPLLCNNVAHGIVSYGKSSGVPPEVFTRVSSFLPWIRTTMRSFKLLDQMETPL

[5] = target: Protein kinase C alpha type (Homo sapiens, UniProt P17252); assay type: cell-based; conditions: sf9

5-hydroxytryptamine receptor 4, sequence (O70528 whole entry): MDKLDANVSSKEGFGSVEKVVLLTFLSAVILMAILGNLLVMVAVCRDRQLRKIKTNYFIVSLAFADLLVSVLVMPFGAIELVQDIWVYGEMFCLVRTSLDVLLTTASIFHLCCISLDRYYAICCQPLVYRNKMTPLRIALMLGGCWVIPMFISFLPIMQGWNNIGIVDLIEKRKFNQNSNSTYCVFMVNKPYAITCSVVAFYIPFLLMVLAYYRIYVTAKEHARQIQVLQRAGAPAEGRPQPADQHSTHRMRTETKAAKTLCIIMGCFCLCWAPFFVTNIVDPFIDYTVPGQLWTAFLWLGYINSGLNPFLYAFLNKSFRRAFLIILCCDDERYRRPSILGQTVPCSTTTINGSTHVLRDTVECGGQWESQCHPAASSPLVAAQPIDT
Beta-2 adrenergic receptor, sequence (P07550 whole entry): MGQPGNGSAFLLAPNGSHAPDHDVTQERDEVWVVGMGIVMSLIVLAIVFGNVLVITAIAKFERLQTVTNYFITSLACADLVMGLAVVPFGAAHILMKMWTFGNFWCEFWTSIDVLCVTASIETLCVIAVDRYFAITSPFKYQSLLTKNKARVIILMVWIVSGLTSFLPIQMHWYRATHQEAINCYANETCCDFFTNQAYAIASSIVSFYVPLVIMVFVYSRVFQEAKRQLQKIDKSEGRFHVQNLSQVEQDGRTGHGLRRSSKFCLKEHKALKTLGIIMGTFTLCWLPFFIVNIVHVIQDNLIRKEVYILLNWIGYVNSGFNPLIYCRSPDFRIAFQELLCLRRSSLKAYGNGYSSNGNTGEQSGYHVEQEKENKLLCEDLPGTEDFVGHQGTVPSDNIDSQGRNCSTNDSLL

CCOC(=O)C1=C(COCCN)NC(C)=C(C(=O)OC)C1c1ccccc1Cl (stereo unspecified) [AMLODIPINE]
Not Active: IC50 [1] | IC50 [2] | IC50 (Neutrophil elastase) | IC50 [3] | Ki [3] | IC50 (Glycine receptor) | IC50 [4] | Ki [4] | IC50 (Cathepsin G) | IC50 [5]

COc1ccc(C[C@H]2NC[C@H](O)[C@H]2OC(C)=O)cc1 [ANISOMYCIN]
Not Active: IC50 [1] | Ki [1] | IC50 [2] | Ki [2] | IC50 (Neutrophil elastase) | Ki (Neutrophil elastase) | IC50 [3] | Ki [3] | IC50 (Glycine receptor) | Ki (Glycine receptor) | IC50 [4] | Ki [4] | IC50 (Cathepsin G) | Ki (Cathepsin G) | IC50 [5] | Ki [5]

Nc1ncn([C@@H]2O[C@H](CO)[C@@H](O)[C@H]2O)c(=O)n1 [AZACITIDINE]
Not Active: IC50 [1] | IC50 [2] | IC50 (Neutrophil elastase) | IC50 [3] | Ki [3] | IC50 (Glycine receptor) | IC50 [4] | Ki [4] | IC50 (Cathepsin G) | IC50 [5]

CN(C)C(=O)Oc1cc(OC(=O)N(C)C)cc(C(O)CNC(C)(C)C)c1 (stereo unspecified) [BAMBUTEROL]
Not Active: IC50 [1] | IC50 [2] | IC50 (Neutrophil elastase) | IC50 [3] | Ki [3] | IC50 (Glycine receptor) | IC50 [4] | Ki [4] | IC50 (Cathepsin G) | IC50 [5]

c1ccc2c(c1)c1cccc3ccc4cccc2c4c31 [BENZO[E]PYRENE]
Not Active: IC50 [1] | IC50 [2] | IC50 (Neutrophil elastase) | IC50 [3] | Ki [3] | IC50 (Glycine receptor) | IC50 [4] | Ki [4] | IC50 (Cathepsin G) | IC50 [5]

CNCCc1ccccn1 [BETAHISTINE]
Not Active: IC50 [1] | IC50 [2] | IC50 (Neutrophil elastase) | IC50 [3] | Ki [3] | IC50 (Glycine receptor) | IC50 [4] | Ki [4] | IC50 (Cathepsin G) | IC50 [5]

CC(C)C(Br)C(=O)NC(N)=O (stereo unspecified) [BROMISOVALUM]
Not Active: IC50 [1] | IC50 [2] | IC50 (Neutrophil elastase) | IC50 [3] | Ki [3] | IC50 (Glycine receptor) | IC50 [4] | Ki [4] | IC50 (Cathepsin G) | IC50 [5]

CCCC1O[C@@H]2C[C@H]3[C@@H]4CCC5=CC(=O)C=C[C@]5(C)[C@H]4[C@@H](O)C[C@]3(C)[C@]2(C(=O)CO)O1 (stereo partly specified) [BUDESONIDE]
Not Active: IC50 [1] | IC50 [2] | IC50 (Neutrophil elastase) | IC50 [3] | Ki [3] | IC50 (Glycine receptor) | IC50 [4] | Ki [4] | IC50 (Cathepsin G) | IC50 [5]

CC(NC(C)(C)C)C(=O)c1cccc(Cl)c1 (stereo unspecified) [BUPROPION]
Not Active: IC50 [1] | IC50 [2] | IC50 (Neutrophil elastase) | IC50 [3] | Ki [3] | IC50 (Glycine receptor) | IC50 [4] | Ki [4] | IC50 (Cathepsin G) | IC50 [5]

CN(Cc1ccc(C(C)(C)C)cc1)Cc1cccc2ccccc12 [BUTENAFINE]
Not Active: IC50 [1] | IC50 [2] | IC50 (Neutrophil elastase) | IC50 [3] | Ki [3] | IC50 (Glycine receptor) | IC50 [4] | Ki [4] | IC50 (Cathepsin G) | IC50 [5]

C[C@H](CS)C(=O)N1CCC[C@H]1C(=O)O [CAPTOPRIL]
Not Active: IC50 [1] | IC50 [2] | IC50 (Neutrophil elastase) | IC50 [3] | Ki [3] | IC50 (Glycine receptor) | IC50 [4] | Ki [4] | IC50 (Cathepsin G) | IC50 [5]

Cc1ccc(-c2cc(C(F)(F)F)nn2-c2ccc(S(N)(=O)=O)cc2)cc1 [CELECOXIB]
Not Active: IC50 [1] | IC50 [2] | IC50 (Neutrophil elastase) | IC50 [3] | Ki [3] | IC50 (Glycine receptor) | IC50 [4] | Ki [4] | IC50 (Cathepsin G) | IC50 [5]

O=C(O)CCCc1ccc(N(CCCl)CCCl)cc1 [CHLORAMBUCIL]
Not Active: IC50 [1] | IC50 [2] | IC50 (Neutrophil elastase) | IC50 [3] | Ki [3] | IC50 (Glycine receptor) | IC50 [4] | Ki [4] | IC50 (Cathepsin G) | IC50 [5]

CN(C)CCCN1c2ccccc2Sc2ccc(Cl)cc21 [CHLORPROMAZINE]
Not Active: IC50 [1] | IC50 [2] | IC50 (Neutrophil elastase) | IC50 [3] | Ki [3] | IC50 (Glycine receptor) | IC50 [4] | Ki [4] | IC50 (Cathepsin G) | IC50 [5]

C[C@H](CCC(=O)O)[C@H]1CC[C@H]2[C@@H]3[C@H](O)C[C@@H]4C[C@H](O)CC[C@]4(C)[C@H]3C[C@H](O)[C@]12C [CHOLIC ACID]
Not Active: IC50 [1] | IC50 [2] | IC50 (Neutrophil elastase) | IC50 [3] | Ki [3] | IC50 (Glycine receptor) | IC50 [4] | Ki [4] | IC50 (Cathepsin G) | IC50 [5]

Cc1cc(C2CCCCC2)n(O)c(=O)c1 [CICLOPIROX]
Not Active: IC50 [1] | IC50 [2] | IC50 (Neutrophil elastase) | IC50 [3] | Ki [3] | IC50 (Glycine receptor) | IC50 [4] | Ki [4] | IC50 (Cathepsin G) | IC50 [5]

CC1=C2C(=CO[C@H](C)[C@H]2C)C(O)=C(C(=O)O)C1=O [CITRININ]
Not Active: IC50 [1] | IC50 [2] | IC50 (Neutrophil elastase) | IC50 [3] | Ki [3] | IC50 (Glycine receptor) | IC50 [4] | Ki [4] | IC50 (Cathepsin G) | IC50 [5]

CC(C)(Oc1ccc(Cl)cc1)C(=O)O [CLOFIBRIC ACID]
Not Active: IC50 [1] | IC50 [2] | IC50 (Neutrophil elastase) | IC50 [3] | Ki [3] | IC50 (Glycine receptor) | IC50 [4] | Ki [4] | IC50 (Cathepsin G) | IC50 [5]
